We go through five compounds from patent publication US6716428B1, “Antigenic modification of polypeptides” (The Ohio State University Research Foundation, priority 1999, dated 2004).

Read-outs that look alike come from different tables or passages of the source.

The subject of one experiment is HCG. Type of experiment: in vivo, rabbit.
The next experiment deals with female baboons. Kind of experiment: Fertility rates (matings and pregnancies) of immunized female baboons. Format: in vivo, baboon. As to conditions: CFA.

With `CCCCCCCCCCCCCCCCCC(=O)OCC1OC(O)C(NC(C)=O)C(OC(C)C(=O)NC(C)C(=O)NC(CCC(=O)O)C(N)=O)C1O` (stereo not shown) [CGP 18177, NAc-Mur (6-0-stearoyl)-LAla-D.isoGln], the “Mean Antibody Level-^125I-HCG” value came to 215.1 M/L × 10^10 in the experiment with HCG (as E193, 4 weeks); 204.6 M/L × 10^10 in the experiment with HCG (as E193, 5 weeks); 218.2 M/L × 10^10 with HCG (as E193, 6 weeks); 441.9 M/L × 10^10 in the experiment with HCG (as E193, 7 weeks); 544.9 M/L × 10^10 with HCG (as E193, 8 weeks); 456.2 M/L × 10^10 in the experiment with HCG (as E193, 9 weeks). For the same compound, the “Mean Antibody Level-^125I-HCG” value was 631.0 M/L × 10^10 in the experiment on HCG (as E193, 10 weeks); 584.0 M/L × 10^10 with HCG (as E193, 11 weeks); 270.0 M/L × 10^10 with HCG (as E193, 12 weeks); 19.9 M/L × 10^10 with HCG (in vivo).

Consider `CCCCCCCCCCCCCCCCCC(=O)OCC1OC(O)C(NC(C)=O)C(OCC(=O)NC(C)C(=O)NC(CCC(=O)O)C(N)=O)C1O` (stereo not shown) [CGP 18741, NAc-ner-Mur (6-0-stearoyl)-L.Ala-D.isoGln], for which the “Mean Antibody Level-^125I-HCG” value is 9.8 M/L × 10^10 with HCG (as E193, 4 weeks); 6.2 M/L × 10^10 with HCG (as E193, 5 weeks); 8.9 M/L × 10^10 in the experiment with HCG (as E193, 6 weeks); 81.1 M/L × 10^10 with HCG (as E193, 7 weeks); 75.4 M/L × 10^10 in the experiment with HCG (as E193, 8 weeks); 74.9 M/L × 10^10 in the experiment with HCG (as E193, 9 weeks). The “Mean Antibody Level-^125I-HCG” value in the experiment on HCG (as E193, 10 weeks) turned out to be 121.8 M/L × 10^10; with HCG (as E193, 11 weeks), 156.8 M/L × 10^10; with HCG (as E193, 12 weeks), 97.6 M/L × 10^10; with HCG (in vivo), 5.9 M/L × 10^10.

As to “NAc-Mur-L.Ala-D.isoGln-L.Ala-Cephalin [CGP 19835]”, the “Mean Antibody Level-^125I-HCG” value in the experiment on HCG (as E193, 4 weeks) was 286.7 M/L × 10^10; with HCG (as E193, 5 weeks), 140.3 M/L × 10^10; in the experiment with HCG (as E193, 6 weeks) it was 172.0 M/L × 10^10; in the experiment on HCG (as E193, 7 weeks), 123.4 M/L × 10^10; in the experiment with HCG (as E193, 8 weeks) it was 138.9 M/L × 10^10; in the experiment with HCG (as E193, 9 weeks), 105.2 M/L × 10^10. Moreover, the “Mean Antibody Level-^125I-HCG” value is recorded as 151.3 M/L × 10^10 in the experiment with HCG (as E193, 10 weeks); 169.3 M/L × 10^10 in the experiment with HCG (as E193, 11 weeks); 107.8 M/L × 10^10 in the experiment on HCG (as E193, 12 weeks); 19.3 M/L × 10^10 in the experiment on HCG (in vivo).

For the compound NGlycol-Mur-L. a -Abu-D.isoGln [DT-1], the “Mean Antibody Level-^125I-HCG” value with HCG (as E193, 4 weeks) came out at 145.1 M/L × 10^10; in the experiment on HCG (as E193, 5 weeks), 184.1 M/L × 10^10; in the experiment on HCG (as E193, 6 weeks), 268.6 M/L × 10^10; in the experiment on HCG (as E193, 7 weeks) it was 371.5 M/L × 10^10; in the experiment with HCG (as E193, 8 weeks) it was 366.2 M/L × 10^10; in the experiment with HCG (as E193, 9 weeks) it was 654.8 M/L × 10^10. Moreover, the “Mean Antibody Level-^125I-HCG” value is recorded as 729.4 M/L × 10^10 in the experiment with HCG (as E193, 10 weeks); 627.5 M/L × 10^10 with HCG (as E193, 11 weeks); 559.0 M/L × 10^10 with HCG (as E193, 12 weeks); 31.1 M/L × 10^10 with HCG (in vivo). The “HCG antibody levels compared with rabbits receiving adjuvants CGP 16940 and 12908” value with HCG (in vivo) is “significantly greater”.

With “Tetanus Toxoid: carrier protein given alone to the control group”, the “Fertility Rate” value amounted to 66.7% with female baboons (Mating Cycle 1), 80.0% in the experiment on female baboons (Mating Cycle 2) and 100.0% in the experiment on female baboons (Mating Cycle 3). For the same compound, the figures for the “Number Pregnant” value in the experiment with female baboons (Mating Cycle 1), in the experiment with female baboons (Mating Cycle 2) and in the experiment on female baboons (Mating Cycle 3) were 10, 4 and 1, respectively. Moreover, the “Overall Fertility Rate” value in the experiment on female baboons (all matings of three mating cycles) amounted to 71.4%. Further, in the experiment with female baboons (three mating cycles), the “Total Number Pregnant” value is listed as 15.
